The experiment concerns PD patients. Description: fMRI of PD patients performing paced finger tapping (PFT), on and off dopamine supplementation. The format is in vivo. The procedure: In this fMRI study, ten PD patients and thirteen healthy age-matched controls were imaged while performing the PFT. PD patients underwent two imaging sessions, one on and the other off dopamine supplementation. For this study whole-brain fMRI was performed on a 1.5 Tesla General Electric Signa scanner equipped with a 3-axis local gradient head coil and an elliptical end-capped quadrature radiofrequency coil. Foam padding was used to limit head motion within the coil. Echo-planar images were collected using a single-shot, blipped gradient-echo echo-planar pulse sequence (TE=40 ms, TR=3.0 seconds, 90° flip angle, FOV=240 mm, matrix=64×64). Twenty-two contiguous sagittal 6 mm thick slices were collected to provide coverage of the entire brain (voxel size 3.75×3.75×6 mm). Overall, a total of 136 images were collected per run. Prior to functional imaging, high-resolution, three-dimensional, spoiled gradient-recalled at steady-state (GRASS) anatomic images were collected (TE=5 ms, TR=24 ms, 40° flip angle, NEX=1, slice thickness=1.2 mm, FOV=24 cm, matrix=256×128) for anatomic localization and co-registration.

For `N[C@@H](Cc1ccc(O)c(O)c1)C(=O)O` [Levodopa], the “effect on the S task (fMRI activation)” value (PD patients ON vs OFF medication, S condition of PFT task) is “relatively little effect”. Moreover, for the setting “PD patients, fMRI during PFT, on vs off dopamine replacement”, the “spatial extent of activation within the SMC, SMA, and putamen” value is on record as “increase”. In addition, the brain activation patterns entry (PD patients, fMRI during PFT, relative to healthy controls) was “partially “normalized””. Besides, the PFT performance result (PD patients, on vs off dopamine supplementation) is “lack of improvement”.

(Values after patent US20050107682A1, “fMRI system for use in assessing the efficacy of therapies in treating CNS disorders” (priority 2003, published 2005).)
